“Also recorded” adds a separate entry of the source.
Tests used:
SARS-COV-2 strain KCDC03 = type: cell-based
[1] = tested on: influenza A virus hemagglutinin (H) and M2 proteins; type: cell-based; conditions: A549, 20 μM; vs vehicle
[2] = tested on: influenza A virus PR8 strain; type: cell-based
[3] = tested on: spike (S) protein of SARS-COV-2; assay: Palmitoylation assay in SARS-CoV-2-infected Vero E6 cells; type: cell-based; conditions: Vero E6, 20 μM; vs vehicle
Experimental: CO2 incubator. The cells were then washed with phosphate-buffered saline, and DMEM supplemented with 1 μg/ml TPCK-treated trypsin, 100 u/ml penicillin, and 100 ug/ml streptomycin was added. Afterward, the cells were incubated in a 37° C. CO2 incubator for 18 hours. […] Following an additional 18-hour incubation, the cells were washed with phosphate-buffered saline, treated with trypsin, harvested, and centrifuged. The palmitoylation assay (Badrilla, Leeds, UK) was then conducted on these cells according to the manufacturer's instructions.
The cell pellet was washed with phosphate-buffered saline and then mixed with Buffer A containing Thiol Blocking Reagent. The mixture was incubated at 40° C. for 4 hours with continuous stirring. Subsequently, 70% acetone was added to precipitate the proteins, and the supernatant was discarded. The acetone addition process was repeated five times. The pellet was thoroughly washed, followed by elution in a binding buffer at 40° C. for 3 hours. A portion of the eluted supernatant was mixed with Laemmli Sample Buffer and used as an input control for total protein, while the remainder underwent a purification process for palmitoylated proteins.
Initially, the total protein supernatant was mixed with CAPTUREome™ Capture Resin and Thio Cleavage Reagent, and the mixture was incubated on a rotary mixer at 20° C. for 3 hours. […]

SARS-COV-2 KCDC03 strain = assay: SARS-CoV-2-infected hamsters treated with lipase inhibitor; conditions: for alleviation (reduction) of pneumonia severity: 80 mg kg^−1 day^−1 intraperitoneally for 4.5 days; for pneumonia severity: 20, 40, 80 mg kg^−1 day^−1, dose-dependent; for production of free fatty acids and glycerol in lung tissue: 20 to 80 mg kg^−1 day^−1; for number of viral genes (viral genome copy number) in lung tissue / progeny viruses in lung tissue: fifth day post-infection; for weight loss: five days observation
[4] = tested on: Bovine coronavirus (KWD20); assay: microbe, parasite or virus in culture; conditions: Betacoronavirus 1, 18 h
[5] = tested on: Porcine sapovirus (Cowden); assay: microbe, parasite or virus in culture; conditions: Sapporo virus, LLCPK, 18 h
[6] = tested on: Species A Rotavirus (NCDV); assay: microbe, parasite or virus in culture; conditions: MA104, in Bos taurus, 12 h
[7] = MTT half-maximal cytotoxic concentration (CC50); conditions: dog
[8] = MTT half-maximal cytotoxic concentration (CC50); conditions: rhesus monkey
Experimental: (§1) To determine the half-maximal cytotoxic concentration (CC50) of the lipase inhibitors atglistatin and CAY10499, Vero E6, A549, HRT-18G, MA104, MARC-145, and LLC-PK cells were prepared in monolayers in 96-well plates.
(§2) The cells were treated with the drugs for 24 hours, and the culture media was removed before addition of 200 μL of 3-(4,5-dimethylthiazol-2-yl)-2,5-diphenyl tetrazolium bromide (MTT) solution to each well. The plates were then incubated for 4 hours in a 5% CO2 incubator at 36° C. Subsequently, 150 μL of DMSO solution was added to each well and incubated at 20° C. The optical density (OD) was measured at 570 nm wavelength using an enzyme-linked immunosorbent assay (ELISA) reader.

[9] = tested on: Influenza A virus (H1N1) (PR8); assay: microbe, parasite or virus in culture; conditions: H1N1|PR8, A549, 12 h, drug added after 12 hours, additional 12 hours
[10] = tested on: Porcine respiratory reproductive syndrome virus (LMY); assay: microbe, parasite or virus in culture; conditions: Porcine reproductive and respiratory syndrome virus, MARC145, in Sus scrofa, 18 h
[11] = CC50 range over the cell line panel
Experimental: as §1, §2

[12] = MTT half-maximal cytotoxic concentration (CC50); conditions: pig
Experimental: as §1, §2

SARS COV-2 KCDC03 strain = type: cell-based; conditions: SARS-CoV-2 spike protein, Vero E6; 1, 10, 20 μM
[13] = MTT half-maximal cytotoxic concentration (CC50); conditions: African green monkey
Experimental: as §1, §2

[14] = tested on: bovine coronavirus KWD20 strain; type: cell-based; conditions: bovine coronavirus spike protein, HRT-18G; 1, 10, 20 μM
[15] = tested on: influenza A virus PR8 strain; type: cell-based; conditions: influenza A virus M2 protein, A549; 1, 10, 20 μM
[16] = tested on: bovine species A rotavirus NCDV strain; assay: Viral antigen expression (Western blot, immunofluorescence) in infected MA104 cells; type: cell-based; conditions: rotavirus VP6 protein, 1, 10, 20 μM
[17] = tested on: porcine sapovirus Cowden strain; assay: Viral antigen expression (Western blot, immunofluorescence) in infected LLC-PK cells; type: cell-based; conditions: porcine sapovirus VPg protein, 1, 10, 20 μM
[18] = tested on: porcine epidemic diarrhea coronavirus QIAP1401 strain; assay: Viral antigen expression (Western blot, immunofluorescence) in infected Vero E6 cells; type: cell-based; conditions: PEDV nucleocapsid protein, 1, 10, 20 μM
Experimental: The virus was incubated at 37° C. for 18 hours, after which the medium was changed with a medium containing DABPU-EM or DABPU-DE at a final concentration of 1 μM, […], or 20 μM. Following an additional 18 hours of incubation, the Vero E6 cells in 6-well plates were washed with phosphate-buffered saline, collected by scaping, and centrifuged. The cell pellet thus obtained was subjected to Western blot analysis. The intensity of the porcine epidemic diarrhea coronavirus nucleocapsid protein detected was assessed by comparison with the relative positive signals of the internal control beta-actin using the ImageJ software. Separately, the Vero E6 cells in 8-well chambers were washed with phosphate-buffered saline, fixed with 4% paraformaldehyde, and then subjected to immunofluorescence staining for porcine epidemic diarrhea coronavirus nucleocapsid protein in the same manner as described in the foregoing.

Vero E6 cells = assay: MTT half-maximal cytotoxic concentration (CC50); conditions: Vero E6; drugs for 24 hours, MTT
Experimental: as §1, §2

[19] = listed as atglistatin (DABPU-DM)
[20] = vs untreated virus-inoculated group

Experimental for MARC cells: as §1, §2

SMILES	free fatty acids and glycerol in the cytoplasm (SARS-COV-2 strain KCDC03)	number of lipid droplets (SARS-COV-2 strain KCDC03)	progeny virus count (SARS-COV-2 strain KCDC03)	viral gene count (SARS-COV-2 strain KCDC03)	virus spike protein synthesis (SARS-COV-2 strain KCDC03)	palmitoylation of both hemagglutinin (H) and M2 proteins [1]	levels of free fatty acids and glycerol in the cytoplasm [2]	number of lipid droplets [2]	production of virus M2 protein [2]	progeny virus titer [2]	viral genome copy [2]	palmitoylation of the spike (S) protein of SARS-COV-2 [3]	alleviation (reduction) of pneumonia severity (SARS-COV-2 KCDC03 strain) [%]	pneumonia severity (SARS-COV-2 KCDC03 strain)	production of free fatty acids and glycerol in lung tissue (SARS-COV-2 KCDC03 strain)	number of viral genes (viral genome copy number) in lung tissue (SARS-COV-2 KCDC03 strain)	progeny viruses in lung tissue (SARS-COV-2 KCDC03 strain)	weight loss (SARS-COV-2 KCDC03 strain)	IC50 [4] [µM]	IC50 [5] [µM]	other results
COc1nn(-c2ccc(NC(=O)OCc3ccccc3)c(C)c2)c(=O)o1 [CAY10499]	significant decrease	did not decrease significantly	significant decrease	significant decrease	significant decrease	significantly decreased	significant decrease	did not significantly decrease	significant decrease	significant decrease	significant decrease	significantly reduced	–	–	–	–	–	–	–	–	CC50 (MARC cells): 101 µM
CN(C)C(=O)Nc1cccc(-c2ccc(N(C)C)cc2)c1 [Atglistatin, 3-(4′-(dimethylamino)-(1,1′-biphenyl)-3-yl)-1,1-dimethylurea]	significant decrease	did not decrease significantly	significant decrease	significant decrease	significant decrease	significantly decreased	significant decrease	did not significantly decrease	significant decrease	significant decrease	significant decrease	significantly reduced	73	alleviating pneumonia severity in a dose-dependent manner	significantly reducing	significant decrease	significant decrease	ceasing weight loss	1.2	3.11	alleviation (reduction) of pneumonia severity (SARS-COV-2 KCDC03 strain; [19]): 70%; production of free fatty acids and glycerol in lung tissue (SARS-COV-2 KCDC03 strain; [19]): decreasing; number of viral genes (viral genome copy number) in lung tissue (SARS-COV-2 KCDC03 strain; [19]): significantly reduced; progeny viruses in lung tissue (SARS-COV-2 KCDC03 strain; [19]): significantly reduced; weight loss (SARS-COV-2 KCDC03 strain; [19]): blocking weight loss; level of viral antigens in the alveolar epithelial cells (SARS-COV-2 KCDC03 strain; [20]): significant decrease; lung lesions, including interstitial pneumonia, and number of virus-positive cells (SARS-COV-2 KCDC03 strain; [20]): alleviating and reducing; number of lipid droplets in alveolar epithelial cells (SARS-COV-2 KCDC03 strain; [20]): did not decrease significantly; IC50 [6]: 6.7 µM; CC50 at 24 h [7]: 269 µM; CC50 at 24 h [8]: 214 µM; IC50 [9]: 0.82 µM; IC50 [10]: 2.53 µM; CC50 at 24 h [11]: 182 to 269 µM; CC50 at 24 h [12]: 224 µM
CCN(C)C(=O)Nc1cccc(-c2ccc(N(C)C)cc2)c1 [DABPU-EM, 3-(4′-(dimethylamino)-(1,1′-biphenyl)-3-yl)-1-ethyl-1-methylurea]	–	–	–	–	–	–	–	–	–	–	–	–	–	–	–	–	–	–	3.44	3.7	expression levels of the viral antigen in infected cells (SARS COV-2 KCDC03 strain): inhibitory activity; CC50 at 24 h [13]: 210 µM; IC50 [6]: 7.08 µM; CC50 at 24 h [8]: 223 µM; expression levels of the viral antigen in infected cells [14]: inhibitory activity; expression levels of the viral antigen in infected cells [15]: inhibitory activity; IC50 [9]: 1.63 µM; IC50 [10]: 2.7 µM; CC50 at 24 h ([11]; human, African green monkey, dog, pig): 186 to 231 µM; expression levels of the viral antigen in infected cells [16]: inhibitory activity; expression levels of the viral antigen in infected cells [17]: inhibitory activity; expression levels of the viral antigen in infected cells [18]: inhibitory activity; CC50 at 24 h [12]: 231 µM
CCN(CC)C(=O)Nc1cccc(-c2ccc(N(C)C)cc2)c1 [DABPU-DE]	–	–	–	–	–	–	–	–	–	–	–	–	75	alleviating pneumonia severity in a dose-dependent manner	decreasing; also recorded: lower levels	significantly reduced	significantly reduced	blocking weight loss	–	–	expression levels of the viral antigen in infected cells (SARS COV-2 KCDC03 strain): higher inhibitory effects of DABPU-DE than DABPU-EM; CC50 (Vero E6 cells): 222 µM; expression levels of the viral antigen in infected cells [14]: higher inhibitory effects of DABPU-DE than DABPU-EM; expression levels of the viral antigen in infected cells [15]: higher inhibitory effects of DABPU-DE than DABPU-EM; expression levels of the viral antigen in infected cells [16]: higher inhibitory effects of DABPU-DE than DABPU-EM; expression levels of the viral antigen in infected cells [17]: higher inhibitory effects of DABPU-DE than DABPU-EM; expression levels of the viral antigen in infected cells [18]: higher inhibitory effects of DABPU-DE than DABPU-EM

— patent US20240285557A1, “PHARMACEUTICAL COMPOSITION COMPRISING LIPASE INHIBITOR FOR TREATMENT OR TREATMENT OF RNA VIRAL INFECTIONS” (priority 2021, published 2024)
